Test results from patent US5952183A, “Synthesis of estrogen-purine base and estrogen-mercapturate adducts and development of fluorescent probes and monoclonal antibodies to assay those adducts” (priority 1998, dated 1999).
Where two headings read alike, the source gives them in different places.

What was measured:
[1] = published isomerization study of model o-quinone; cited from earlier work
[2] = tested on: DNA; assay: Formation of DNA adducts by quinones or horseradish peroxidase-activated catechol estrogens in vitro (32P-postlabeling for stable adducts); type: biochemical
From the text: First, the o-quinones of estrogens are capable of binding directly to the nucleophilic groups of DNA bases. Second, the 3,4-quinones of estrogens produce depurinating adducts that are lost from DNA, generating apurinic sites in the DNA; and third, the 2,3-quinones form stable adducts that remain bound to DNA if not repaired. In fact, reaction of 2,3- and 3,4-quinones with DNA or CE activated by horseradish peroxidase in the presence of DNA affords differential formation of stable adducts, as evidenced by 32P-postlabeling analysis. The 2,3-quinones form 10-50 times higher levels of stable adducts than the 3,4-quinones.

[3] = tested on: DNA, rat mammary gland; assay: Formation of depurinating DNA adducts in the rat mammary gland; type: in vivo
[4] = tested on: hamster kidney; conditions: Syrian golden hamsters; cited from earlier work
[5] = 1H-NMR monitoring of E1-2,3-Q to quinone methide tautomerization in CH3CN-d3; type: physicochemical
[6] = Stability of estrogen quinones at various pH (remaining quinone by HPLC); type: physicochemical
Procedure: Because acidic conditions were used to generate these estrogen-nucleoside adducts, an investigation was conducted of the effects of pH on the stability of both the 3,4- and 2,3-quinones.
^a pH was adjusted with the following buffers: pH 9, trisHCl; pH 7,
distilled H2 O; […]; pH 3, citric acid.
^b t1/2 is defined as the time when 1/2 of the original quinone
concentration was observed by HPLC
^c Quinones (0.02 mmol) were synthesized in 2 mL of CH3 CN and
placed in 10 mL of aqueous buffer

## O=C1C=C2CCCCC2=CC1=O
[1]
  o-quinone more stable when tautomerized to the QM by: 3.8 kcal/mol

## C[C@]12CC[C@@H]3c4ccc(O)c(O)c4CC[C@H]3[C@@H]1CCC2=O [4-OHE1, 4-hydroxyestrone]
[2]
  formation of depurinating E1(E2)-1-(α,β)-N7Gua adducts: almost exclusively
[3]; rat, in vivo
  formation of depurinating E1(E2)-1-(α,β)-N7Gua adducts: almost exclusively

## C[C@]12CC[C@@H]3c4ccc(O)c(O)c4CC[C@H]3[C@@H]1CC[C@@H]2O [4-OHE2, 4-hydroxyestradiol]
[2]; in vitro, 3,4-quinones or enzymically-activated 4-OHE1/4-OHE2
  formation of depurinating E1(E2)-1-(α,β)-N7Gua adducts: almost exclusively
[3]; rat mammary gland
  formation of depurinating E1(E2)-1-(α,β)-N7Gua adducts: almost exclusively

## C[C@]12CC[C@@H]3c4ccc(O)cc4CC[C@H]3[C@@H]1CCC2=O [E1, estrone]
[4]
  induction of renal tumors / carcinogenicity: Malignant renal tumors are induced

## C[C@]12CC[C@@H]3C4=CC(=O)C(=O)C=C4CC[C@H]3[C@@H]1CCC2=O [E1-2,3-Q]
[5]; CH3CN-d3, two days
  change of 1H-NMR spectrum over time: unchanged for two days
[5]; CH3CN-d3 with CF3CO2H-d, two weeks
  change of o-quinone 1H-NMR spectrum over time with acid: no change in the o-quinone spectrum was observed
[6]
  effect of lowering pH on stability: did not
  decomposition under mildly basic conditions: decomposed rapidly
[6]; pH 3, citric acid, read-out: t1/2 (time when 1/2 of the original quinone concentration was observed by HPLC)
  half-life: 1.17 h
[6]; pH 5, trizma, read-out: t1/2 (time when 1/2 of the original quinone concentration was observed by HPLC)
  half-life: 1.83 h
[6]; pH 7, distilled H2O, read-out: t1/2 (time when 1/2 of the original quinone concentration was observed by HPLC)
  half-life: 1.83 h
[6]; pH 9, trisHCl, read-out: t1/2 (time when 1/2 of the original quinone concentration was observed by HPLC)
  half-life: < 0.0833 h

## C[C@]12CC[C@@H]3C4=C(CC[C@H]3[C@@H]1CCC2=O)C(=O)C(=O)C=C4 [E1-3,4-Q]
[6]
  effect of lowering pH on stability: marked increase in stability
  decomposition under mildly basic conditions: decomposed rapidly
[6]; citric acid, pH 3
  half-life: 6.5 h
[6]; distilled h2o, pH 7
  half-life: 1.83 h
[6]; trishcl, pH 9
  half-life: < 0.0833 h
[6]; trizma, pH 5
  half-life: 3.17 h

## C[C@]12CC[C@@H]3c4ccc(O)cc4CC[C@H]3[C@@H]1CC[C@@H]2O [E2, 17β-estradiol]
[4]
  induction of renal tumors / carcinogenicity: Malignant renal tumors are induced
